# Assay results from patent publication US20040121969A1, “Antiviral nucleoside derivatives” (Roche Palo Alto LLC, priority 2002, published 2004).
# Tested on: human mononuclear cells
# Experiment: not given
# Conditions: treatment of human mononuclear cells; cited from earlier work
row,Compound,"levels of IL-2, TNFα and IFNΓ"
1,"NC(=O)c1ncn([C@@H]2O[C@H](CO)[C@@H](O)[C@H]2O)n1 [Ib, ribavirin]",elevated levels

# Tested on: not given
# Experiment: not given
# Conditions: background statement; cited from earlier work
row,Compound,dose absorbed systemically after oral administration
1,"NC(=O)c1ncn([C@H]2O[C@@H](CO)[C@@H](O)[C@H]2O)n1 [levovirin, Levovirin]",about 15%

# Tested on: Caco-2 cells
# Experiment: Caco-2 cell assay permeability
# Format: in vitro ADME, Human
# Conditions: Caco-2
# From the text: For general discussions of the Caco Assay see: S. Yee, “In Vitro Permeability Across Caco-2 Cells (Colonic) Can Predict In Vivo (Small Intestinal) Absorption in Man—Fact or Myth” Pharm. Res. 14(6):763-766 (1997) and Yamashita et. al., “Analysis of Drug Permeation Across Caco-2 Monolayer: Implication for Predicting In Vivo Drug Absorption” Pharm. Res. 14(4):486-491(1997). For specific technical aspects see: Grass, G. M. and Sweetana, S. A. “In Vitro Measurement of Gastrointestinal Tissue Permeability Using a New Diffusion Cell” Pharm. Res. 5(6):372-376 (1988); Rubas et. al., “Comparison of the Permeability Characteristics of a Human Colonic Epithelial (Caco-2) Cell Line to Colon of Rabbit, Monkey, and Dog Intestine and Human Drug Absorption” Pharm. Res. 10(1): 113-117 (1993).
# High passage (108-120) Caco-2 cells are cultured in Dulbecco's Modified Eagle Media with high Glucose and L-Glutamine (DMEM) (Gibco/Life Technologies, Cat # 11965-084) supplemented with 10% Fetal Bovine Serum, 1× L-Glutamine (Gibco/Life Technologies, Cat # 25030-081) 1× Penicillin-streptomycin (Gibco/Life Technologies, Cat # 15140-122) 1× Non-essential Amino Acids, (Gibco/Life Technologies, Cat # 11140-019). Cells are maintained in T225 cm^2 Cell Culture Flask Tissue Culture Treated (Costar, Cat # 3001) at 37° C. and 5% CO2. For transport experiments, cells are plated at 7.1×10^4 cells/well into 12-well collagen-coated PTFE membrane polystyrene plates with inserts (Costar # 3493, 12 mm diameter, 0.4 um pore size, sterile, tissue culture treated). Cells are fed every 3 days and maintained at 37° C. and 5% CO2 for 21 days to allow complete formation of a polarized monolayer with tight junctions.
# Prepare 5 mg/ml stock solution of test compound in DMSO and store at 4° C. Dilute desired amount of 5 mg/ml stock to 10 mL with pH 6.5 Kreb's Henseleit bicarbonate buffer to give a concentration of 100 μM. Then 1 mL of 100 μM solution was further diluted to 5 mL to make the concentration of 20 μM. This 20 μM test solution was used as initial donor dosing solution (D0). Warm drug solution(s) to 37° C. before use.
# 1. Prewarm buffer, working solutions, and three 12-well plates containing buffer for each plate of 12 inserts. Using a millicell®-ERS equipped with “chopstick” electrodes (Millipore, Bedford, Mass.) check the TEER. This procedure should be done when the cells are at approximately 37° C., since TEER is effected by temperature. Use only those inserts that have TEER above 300 ohms.
# 2. Decant media and wash each insert once with warm Kreb's-Henseleit bicarbonate buffer.
# 3. 0.5 mL pH 6.5 Kreb's-Henseleit buffer was added to apical side of the cell monolayers and 1.25 mL pH 7.4 Kreb's-Henseleit buffer to the basolateral chamber. The cells were equilibrated in 37° C. and 5% CO2 incubator for at least 30 minutes.
# 4. The apical side buffer was removed and replaced with 0.5 mL 20 μM test solutions.
# 5. The cells were then incubated at 37° C. and 5% CO2.
# 6. At 30, 60 and 90 minutes time points, the inserts were transferred to new plates which receiver sides contained 1.25 mL warm fresh pH 7.4 Kreb's-Henseleit buffer.
# 7. The media from all plates were collected as receiver samples.
# 8. After 60 min transport studies, Lucifer Yellow (0.05 mL×1000 μM) was added to the apical side of the wells. At the end of the transport studies (90 minutes), the fluorescence of the receiver side samples was measured.
# Sample solutions from the donor side were collected at the end of the experiments as D90 samples. The dC/dt of test substance was calculated from sampling data at […] (assume 0 ng/mL) and 60 minutes. The apparent permeability coefficient (Papp) was calculated from the following equation, [formula] […]
row,Caco-2 permeability [×10⁻⁶ cm/s],Compound
1,3.4,"CC(C)[C@H](N)C(=O)N1CCC[C@H]1C(=O)OC[C@@H]1O[C@H](n2cnc(C(N)=O)n2)[C@@H](O)[C@H]1O.Cl [Compound 18, 1-(2S-amino-3-methyl-butyryl)-pyrrolidine-2S-carboxylic acid 5S-(3-carbamoyl-[1,2,4]triazol-1-yl)-3R,4S-dihydroxy-tetrahydro-furan-2S-ylmethyl ester, hydrochloride]"

# Same assay, conditions: apparent permeability coefficient (Papp); apical pH 6.5 to basolateral pH 7.4; 20 μM test solution; 37° C.
row,Compound,Caco-2 permeability [×10⁻⁶ cm/s]
1,"2S-amino-3-methyl-butyric acid 4S-(2S-amino-3-methyl-butyryloxy)-5S-(3-carbamoyl-[1,2,4]triazol-1-yl)-2S-hydroxymethyl-tetrahydrofuran-3S-yl ester dihydrochloride [Compound 3]",8.6
2,"CCC(=O)OC[C@@H]1O[C@H](n2cnc(C(N)=O)n2)[C@@H](OC(=O)CC)[C@H]1OC(=O)CC [Compound 2, propionic acid 3S,4S-bis-propionyloxy-5S-(3-carbamoyl-[1,2,4]triazol-1-yl)-tetrahydro-furan-2S-ylmethyl ester]",7.8
3,"CC(C)[C@H](N)C(=O)OC[C@@H]1O[C@H](n2cnc(C(N)=O)n2)[C@@H](O)[C@H]1O.Cl [Compound 5, 2S-amino-3-methyl-butyric acid 5S-(3-carbamoyl-[1,2,4]triazol-1-yl)-3R,4S-dihydroxy-tetrahydro-furan-2S-ylmethyl ester, hydrochloride]",5.6
4,"C[C@H](N)C(=O)OC[C@@H]1O[C@H](n2cnc(C(N)=O)n2)[C@@H](O)[C@H]1O.Cc1ccc(S(=O)(=O)O)cc1 [Compound 7, 2S-amino-propionic acid 5S-(3-carbamoyl-[1,2,4]triazol-1-yl)-3R,4S-dihydroxy-tetrahydro-furan-2S-ylmethyl ester; compound with toluene-4-sulfonic acid]",1.2
5,"CC(C)C[C@H](N)C(=O)OC[C@@H]1O[C@H](n2cnc(C(N)=O)n2)[C@@H](O)[C@H]1O.Cc1ccc(S(=O)(=O)O)cc1 [Compound 9, 2S-amino-4-methyl-pentanoic acid 5S-(3-carbamoyl-[1,2,4]triazol-1-yl)-3R,4S-dihydroxy-tetrahydro-furan-2S-ylmethyl ester; compound with toluene-4-sulfonic acid]",0.9
6,"CC[C@H](C)[C@H](N)C(=O)OC[C@@H]1O[C@H](n2cnc(C(N)=O)n2)[C@@H](O)[C@H]1O.Cc1ccc(S(=O)(=O)O)cc1 [Compound 10, 2S-amino-3S-methyl-pentanoic acid 5S-(3-carbamoyl-[1,2,4]triazol-1-yl)-3R,4S-dihydroxy-tetrahydro-furan-2S-ylmethyl ester; compound with toluene-4-sulfonic acid]",1.5
7,"CC(C)C(=O)O[C@@H]1[C@H](OC(=O)C(C)C)[C@@H](n2cnc(C(N)=O)n2)O[C@H]1CO [Compound 17, isobutyric acid 2S-(3-carbamoyl-[1,2,4]triazol-1-yl)-5S-hydroxymethyl-4S-isobutyryloxy-tetrahydro-furan-3S-yl ester]",4.8
8,"NC(=O)c1ncn([C@H]2O[C@@H](CO)[C@H](OC(=O)c3ccccc3)[C@@H]2OC(=O)c2ccccc2)n1 [Compound 28, benzoic acid 4S-benzoyloxy-5S-(3-carbamoyl-[1,2,4]triazol-1-yl)-2S-hydroxymethyl-tetrahydro-furan-3S-yl ester]",26.6
9,"CCCCCCCC(=O)OC[C@@H]1O[C@H](n2cnc(C(N)=O)n2)[C@@H](O)[C@H]1O [Compound 34, octanoic acid 5S-(3-carbamoyl-[1,2,4]triazol-1-yl)-3R,4S-dihydroxy-tetrahydrofuran-2S-ylmethyl ester]",6.5
